Measured values reported in ChEMBL document CHEMBL1201861, “Genomics of Drug Sensitity in Cancer screening data, Wellcome Trust Sanger Institute”.
pIC50: −log10 of the molar value.

Key:
Experiment in all cases: cells
LB2518-MEL = format: functional, cell-based, Homo sapiens; conditions: Homo sapiens, LB2518-MEL;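 also: growth inhibition of human LB2518-MEL cells, measured with a cell viability assay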
Description: SANGER: Inhibition of human LB2518-MEL cell growth in a cell viability assay.

HC-1 = format: functional, cell-based, Homo sapiens; conditions: Homo sapiens, HC-1;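 also: growth inhibition of HC-1 cells measured by a cell viability assay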
Description: SANGER: Inhibition of human HC-1 cell growth in a cell viability assay.

SNB-75 = format: functional, cell-based, Homo sapiens; conditions: Homo sapiens, SNB-75;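 also: cell viability assay measuring growth inhibition of human SNB-75 cells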
Description: SANGER: Inhibition of human SNB75 cell growth in a cell viability assay.

D-502MG = format: functional, cell-based, Homo sapiens; conditions: Homo sapiens, D-502MG
Description: SANGER: Inhibition of human D-502MG cell growth in a cell viability assay.

OVCAR-4 = format: functional, cell-based, Homo sapiens; conditions: Homo sapiens, OVCAR-4;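 also: growth inhibition of human OVCAR-4 cells, measured with a cell viability assay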
Description: SANGER: Inhibition of human OVCAR-4 cell growth in a cell viability assay.

NCI-H1650 = format: functional, cell-based, Homo sapiens; conditions: Homo sapiens, NCI-H1650;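 also: growth inhibition of human NCI-H1650 cells measured by a cell viability assay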
Description: SANGER: Inhibition of human NCI-H1650 cell growth in a cell viability assay.

HCC1187 = format: functional, cell-based, Homo sapiens; conditions: Homo sapiens, HCC1187;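 also: growth inhibition of HCC1187 cells, read out with a cell viability assay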
Description: SANGER: Inhibition of human HCC1187 cell growth in a cell viability assay.

SCH = format: functional, cell-based, Homo sapiens; conditions: Homo sapiens, SCH;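 also: growth inhibition of human SCH cells, read out in a cell viability assay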
Description: SANGER: Inhibition of human SCH cell growth in a cell viability assay.

LB771-HNC = format: functional, cell-based, Homo sapiens; conditions: Homo sapiens, LB771-HNC;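 also: growth inhibition of LB771-HNC human cells, read out with a cell viability assay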
Description: SANGER: Inhibition of human LB771-HNC cell growth in a cell viability assay.

NCI-H226 = format: functional, cell-based, Homo sapiens; conditions: Homo sapiens, NCI-H226;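 also: cell viability read-out used to gauge growth inhibition of the cells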
Description: SANGER: Inhibition of human NCI-H226 cell growth in a cell viability assay.

ES5 = format: functional, cell-based, Homo sapiens; conditions: Homo sapiens, ES5;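 also: growth inhibition of human ES5 cells, read out by a cell viability assay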
Description: SANGER: Inhibition of human ES5 cell growth in a cell viability assay.

EW-18 = format: functional, cell-based, Homo sapiens; conditions: Homo sapiens, EW-18;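 also: growth inhibition of EW-18 cells, read out by a cell viability assay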
Description: SANGER: Inhibition of human EW-18 cell growth in a cell viability assay.

KM-H2 = format: functional, cell-based, Homo sapiens; conditions: Homo sapiens, KM-H2;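 also: growth inhibition of KM-H2 cells, read out by a cell viability assay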
Description: SANGER: Inhibition of human KM-H2 cell growth in a cell viability assay.

RS4-11 = format: functional, cell-based, Homo sapiens; conditions: Homo sapiens, RS4-11;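 also: growth inhibition of RS4-11 cells, read out by a cell viability assay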
Description: SANGER: Inhibition of human RS4-11 cell growth in a cell viability assay.

SNU-5 = format: functional, cell-based, Homo sapiens; conditions: Homo sapiens, SNU-5;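 also: cell viability readout used to measure growth inhibition in human NCI-SNU-5 cells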
Description: SANGER: Inhibition of human NCI-SNU-5 cell growth in a cell viability assay.

SJSA-1 = format: functional, cell-based, Homo sapiens; conditions: Homo sapiens, SJSA-1;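 also: growth inhibition of human SJSA-1 cells, read out through a cell viability measurement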
Description: SANGER: Inhibition of human SJSA-1 cell growth in a cell viability assay.

LS-1034 = format: functional, cell-based, Homo sapiens; conditions: Homo sapiens, LS-1034
Description: SANGER: Inhibition of human LS-1034 cell growth in a cell viability assay.

LOX IMVI = format: functional, cell-based, Homo sapiens; conditions: Homo sapiens, LOX IMVI
Description: SANGER: Inhibition of human LOXIMVI cell growth in a cell viability assay.

NCI-H1648 = format: functional, cell-based, Homo sapiens; conditions: Homo sapiens, NCI-H1648;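 also: cell viability assay measuring inhibition of NCI-H1648 cell growth, from the Sanger screening data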
Description: SANGER: Inhibition of human NCI-H1648 cell growth in a cell viability assay.

ALL-PO = format: functional, cell-based, Homo sapiens; conditions: Homo sapiens, ALL-PO;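 also: growth inhibition of ALL-PO cells, read out by a cell viability assay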
Description: SANGER: Inhibition of human ALL-PO cell growth in a cell viability assay.

NEC8 = format: functional, cell-based, Homo sapiens; conditions: Homo sapiens, NEC8;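 also: growth inhibition of human NEC8 cells, read out by a cell viability assay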
Description: SANGER: Inhibition of human NEC8 cell growth in a cell viability assay.

GI-1 = format: functional, cell-based, Homo sapiens; conditions: Homo sapiens, GI-1;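 also: growth inhibition of human GI-1 cells, measured with a cell viability readout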
Description: SANGER: Inhibition of human GI-1 cell growth in a cell viability assay.

MSTO-211H = format: functional, cell-based, Homo sapiens; conditions: Homo sapiens, MSTO-211H
Description: SANGER: Inhibition of human MSTO-211H cell growth in a cell viability assay.

DMS-114 = format: functional, cell-based, Homo sapiens; conditions: Homo sapiens, DMS-114
KE-37 = format: functional, cell-based, Homo sapiens; conditions: Homo sapiens, KE-37;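 also: growth inhibition of KE-37 cells, read out with a cell viability assay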
Description: SANGER: Inhibition of human KE-37 cell growth in a cell viability assay.

LU-139 = format: functional, cell-based, Homo sapiens; conditions: Homo sapiens, LU-139
Description: SANGER: Inhibition of human LU-139 cell growth in a cell viability assay.

NCI-H82 = format: functional, cell-based, Homo sapiens; conditions: Homo sapiens, NCI-H82;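 also: growth inhibition of NCI-H82 cells, measured with a cell viability readout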
Description: SANGER: Inhibition of human NCI-H82 cell growth in a cell viability assay.

Ramos-2G6-4C10 = format: functional, cell-based, Homo sapiens; conditions: Homo sapiens, Ramos-2G6-4C10;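 also: growth inhibition of the cell line, measured by a cell viability read-out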
Description: SANGER: Inhibition of human Ramos-2G6-4C10 cell growth in a cell viability assay.

KALS-1 = format: functional, cell-based, Homo sapiens; conditions: Homo sapiens, KALS-1;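 also: growth inhibition of KALS-1 cells, determined with a cell viability assay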
Description: SANGER: Inhibition of human KALS-1 cell growth in a cell viability assay.

Lu-65 = format: functional, cell-based, Homo sapiens; conditions: Homo sapiens, Lu-65;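 also: growth inhibition of Lu-65 cancer cells, read out by a cell viability assay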
Description: SANGER: Inhibition of human LU-65 cell growth in a cell viability assay.

TGW = format: functional, cell-based, Homo sapiens; conditions: Homo sapiens, TGW;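 also: growth inhibition of human TGW cells, read out with a cell viability assay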
Description: SANGER: Inhibition of human TGW cell growth in a cell viability assay.

ATN-1 = format: functional, cell-based, Homo sapiens; conditions: Homo sapiens, ATN-1;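 also: growth inhibition of human ATN-1 cells, read out with a cell viability assay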
Description: SANGER: Inhibition of human ATN-1 cell growth in a cell viability assay.

BB30-HNC = format: functional, cell-based, Homo sapiens; conditions: Homo sapiens, BB30-HNC;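 also: growth inhibition of the cultured cell line, read out by a cell viability assay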
Description: SANGER: Inhibition of human BB30-HNC cell growth in a cell viability assay.

AM-38 = format: functional, cell-based, Homo sapiens; conditions: Homo sapiens, AM-38;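 also: growth inhibition of AM-38 cells of human origin, read out by a cell viability assay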
Description: SANGER: Inhibition of human AM-38 cell growth in a cell viability assay.

COLO-824 = format: functional, cell-based, Homo sapiens; conditions: Homo sapiens, COLO-824
Description: SANGER: Inhibition of human COLO-824 cell growth in a cell viability assay.

MOLT-16 = format: functional, cell-based, Homo sapiens; conditions: Homo sapiens, MOLT-16;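 also: growth inhibition of human MOLT-16 cells, read out with a cell viability assay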
Description: SANGER: Inhibition of human MOLT-16 cell growth in a cell viability assay.

OMC-1 = format: functional, cell-based, Homo sapiens; conditions: Homo sapiens, OMC-1;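 also: growth inhibition of the OMC-1 cell line, measured by a cell viability assay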
Description: SANGER: Inhibition of human OMC-1 cell growth in a cell viability assay.

KNS-42 = format: functional, cell-based, Homo sapiens; conditions: Homo sapiens, KNS-42;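 also: growth inhibition of KNS-42 cells, read out with a cell viability assay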
Description: SANGER: Inhibition of human KNS-42 cell growth in a cell viability assay.

K5 = format: functional, cell-based, Homo sapiens; conditions: Homo sapiens, K5
Description: SANGER: Inhibition of human K5 cell growth in a cell viability assay.

HuTu80 = format: functional, cell-based, Homo sapiens, HUTU-80; conditions: Homo sapiens, HuTu80;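 also: growth inhibition of HuTu80 human cells, determined with a cell viability readout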
Description: SANGER: Inhibition of human HUTU-80 cell growth in a cell viability assay.

KARPAS-299 = format: functional, cell-based, Homo sapiens; conditions: Homo sapiens, KARPAS-299
Description: SANGER: Inhibition of human KARPAS-299 cell growth in a cell viability assay.

HH = format: functional, cell-based, Homo sapiens; conditions: Homo sapiens, HH
Description: SANGER: Inhibition of human HH cell growth in a cell viability assay.

MHH-NB-11 = format: functional, cell-based, Homo sapiens; conditions: Homo sapiens, MHH-NB-11;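 also: growth inhibition of human MHH-NB-11 cells, read out by a cell viability assay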
Description: SANGER: Inhibition of human MHH-NB-11 cell growth in a cell viability assay.

DJM-1 = format: functional, cell-based, Homo sapiens; conditions: Homo sapiens, DJM-1;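 also: growth inhibition of human DJM-1 cells, read out by a cell viability assay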
Description: SANGER: Inhibition of human DJM-1 cell growth in a cell viability assay.

LB831-BLC = format: functional, cell-based, Homo sapiens; conditions: Homo sapiens, LB831-BLC;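 also: growth inhibition of LB831-BLC cells, read out with a cell viability assay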
Description: SANGER: Inhibition of human LB831-BLC cell growth in a cell viability assay.

COR-L88 = format: functional, cell-based, Homo sapiens; conditions: Homo sapiens, COR-L88;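 also: growth inhibition of COR-L88 cells, read out with a cell viability assay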
Description: SANGER: Inhibition of human COR-L88 cell growth in a cell viability assay.

NB10 = format: functional, cell-based, Homo sapiens; conditions: Homo sapiens, NB10;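 also: growth inhibition of NB10 cells, read out by a cell viability assay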
Description: SANGER: Inhibition of human NB10 cell growth in a cell viability assay.

TGBC24TKB = format: functional, cell-based, Homo sapiens; conditions: Homo sapiens, TGBC24TKB;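 also: growth inhibition of human TGBC24TKB cells, read out with a cell viability assay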
Description: SANGER: Inhibition of human TGBC24TKB cell growth in a cell viability assay.

TE-11 = format: functional, cell-based, Homo sapiens; conditions: Homo sapiens, TE-11;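 also: growth inhibition of human TE-11 cells, read out by a cell viability assay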
Description: SANGER: Inhibition of human TE-11 cell growth in a cell viability assay.

COc1cc2ncn(-c3cc(OCc4ccccc4S(C)(=O)=O)c(C#N)s3)c2cc1OC [GSK-319347A]
pIC50 (LB2518-MEL): < 5.30 | pIC50 (HC-1): < 5.30 | pIC50 (SNB-75): < 5.30 | pIC50 (D-502MG): < 5.30 | pIC50 (OVCAR-4): < 5.30 | pIC50 (NCI-H1650): < 5.30 | pIC50 (HCC1187): < 5.30 | pIC50 (SCH): < 5.30 | pIC50 (LB771-HNC): < 5.30 | pIC50 (NCI-H226): < 5.30 | pIC50 (ES5): < 5.30 | pIC50 (EW-18): < 5.30 | pIC50 (KM-H2): < 5.30 | pIC50 (RS4-11): < 5.30 | pIC50 (SNU-5): < 5.30 | pIC50 (SJSA-1): < 5.30 | pIC50 (LS-1034): < 5.30 | pIC50 (LOX IMVI): < 5.30 | pIC50 (NCI-H1648): < 5.30 | pIC50 (ALL-PO): < 5.30 | pIC50 (NEC8): < 5.30 | pIC50 (GI-1): < 5.30 | pIC50 (MSTO-211H): < 5.30 | pIC50 (DMS-114): < 5.30 | pIC50 (KE-37): < 5.30 | pIC50 (LU-139): < 5.30 | pIC50 (NCI-H82): < 5.30 | pIC50 (Ramos-2G6-4C10): < 5.30 | pIC50 (KALS-1): < 5.30 | pIC50 (Lu-65): < 5.30 | pIC50 (TGW): < 5.30 | pIC50 (ATN-1): < 5.30 | pIC50 (BB30-HNC): < 5.30 | pIC50 (AM-38): < 5.30 | pIC50 (COLO-824): < 5.30 | pIC50 (MOLT-16): < 5.30 | pIC50 (OMC-1): < 5.30 | pIC50 (KNS-42): < 5.30 | pIC50 (K5): < 5.30 | pIC50 (HuTu80): < 5.30 | pIC50 (KARPAS-299): < 5.30 | pIC50 (HH): < 5.30 | pIC50 (MHH-NB-11): < 5.30 | pIC50 (DJM-1): < 5.30 | pIC50 (LB831-BLC): < 5.30 | pIC50 (COR-L88): < 5.30 | pIC50 (NB10): < 5.30

CC[C@H](CO)Nc1nc(NCc2ccccc2)c2ncn(C(C)C)c2n1 [SELICICLIB]
pIC50 (LB2518-MEL): < 4.80 | pIC50 (HC-1): < 4.80 | pIC50 (SNB-75): < 4.80 | pIC50 (D-502MG): < 4.80 | pIC50 (OVCAR-4): < 4.80 | pIC50 (NCI-H1650): < 4.80 | pIC50 (HCC1187): < 4.80 | pIC50 (SCH): < 4.80 | pIC50 (LB771-HNC): < 4.80 | pIC50 (NCI-H226): < 4.80 | pIC50 (ES5): < 4.80 | pIC50 (EW-18): < 4.80 | pIC50 (KM-H2): < 4.80 | pIC50 (RS4-11): < 4.80 | pIC50 (SNU-5): < 4.80 | pIC50 (SJSA-1): < 4.80 | pIC50 (LS-1034): < 4.80 | pIC50 (LOX IMVI): < 4.80 | pIC50 (NCI-H1648): < 4.80 | pIC50 (ALL-PO): < 4.80 | pIC50 (NEC8): < 4.80 | pIC50 (GI-1): < 4.80 | pIC50 (MSTO-211H): < 4.80 | pIC50 (DMS-114): < 4.80 | pIC50 (KE-37): < 4.80 | pIC50 (LU-139): < 4.80 | pIC50 (NCI-H82): < 4.80 | pIC50 (Ramos-2G6-4C10): < 4.80 | pIC50 (KALS-1): < 4.80 | pIC50 (Lu-65): < 4.80 | pIC50 (TGW): < 4.80 | pIC50 (ATN-1): < 4.80 | pIC50 (BB30-HNC): < 4.80 | pIC50 (AM-38): < 4.80 | pIC50 (COLO-824): < 4.80 | pIC50 (MOLT-16): < 4.80 | pIC50 (OMC-1): < 4.80 | pIC50 (KNS-42): < 4.80 | pIC50 (K5): < 4.80 | pIC50 (HuTu80): < 4.80 | pIC50 (KARPAS-299): < 4.80 | pIC50 (HH): < 4.80 | pIC50 (MHH-NB-11): < 4.80 | pIC50 (DJM-1): < 4.80 | pIC50 (LB831-BLC): 4.94 | pIC50 (COR-L88): < 4.80 | pIC50 (NB10): < 4.80

CCN(CC)CCNC(=O)c1c(C)[nH]c(/C=C2\C(=O)Nc3ccc(F)cc32)c1C [SUNITINIB]
pIC50 (LB2518-MEL): < 5.10 | pIC50 (HC-1): 5.26 | pIC50 (SNB-75): < 5.10 | pIC50 (D-502MG): < 5.10 | pIC50 (OVCAR-4): < 5.10 | pIC50 (NCI-H1650): < 5.10 | pIC50 (HCC1187): < 5.10 | pIC50 (SCH): < 5.10 | pIC50 (LB771-HNC): < 5.10 | pIC50 (NCI-H226): < 5.10 | pIC50 (ES5): < 5.10 | pIC50 (EW-18): < 5.10 | pIC50 (KM-H2): < 5.10 | pIC50 (TGBC24TKB): < 5.10 | pIC50 (SNU-5): < 5.10 | pIC50 (SJSA-1): 5.12 | pIC50 (LS-1034): < 5.10 | pIC50 (LOX IMVI): < 5.10 | pIC50 (NCI-H1648): < 5.10 | pIC50 (ALL-PO): 7.10 | pIC50 (NEC8): < 5.10 | pIC50 (GI-1): < 5.10 | pIC50 (MSTO-211H): < 5.10 | pIC50 (DMS-114): < 5.10 | pIC50 (KE-37): 5.39 | pIC50 (LU-139): < 5.10 | pIC50 (NCI-H82): 5.13 | pIC50 (Ramos-2G6-4C10): < 5.10 | pIC50 (KALS-1): < 5.10 | pIC50 (Lu-65): < 5.10 | pIC50 (TGW): < 5.10 | pIC50 (ATN-1): 5.44 | pIC50 (AM-38): < 5.10 | pIC50 (COLO-824): < 5.10 | pIC50 (MOLT-16): 6.20 | pIC50 (OMC-1): < 5.10 | pIC50 (KNS-42): < 5.10 | pIC50 (K5): < 5.10 | pIC50 (HuTu80): < 5.10 | pIC50 (KARPAS-299): 5.68 | pIC50 (HH): 5.38 | pIC50 (MHH-NB-11): < 5.10 | pIC50 (DJM-1): < 5.10 | pIC50 (LB831-BLC): < 5.10 | pIC50 (COR-L88): < 5.10 | pIC50 (NB10): < 5.10 | pIC50 (TE-11): 5.74
